From patent publication US20080160106A1, “Novel Uses for Proton Pump Inhibitors” (Istituto Superiore de Sanita, priority 2004, published 2008)
Entries after “also recorded” stand apart in the source; their conditions may differ.

How the values were obtained:
[1] = system: human melanoma cells; test: In vivo effects of omeprazole and cisplatin on tumour growth in the human/SCID mouse model; set-up: species or system CB.17 scid/scid mice; settings: cisplatin alone, single dose 5 mg/kg i.p.
Procedure: Animals: CB.17 SCID/SCID female mice (Harlan, Italy) were used at 4-5 weeks of age and were kept under specific pathogen-free conditions. SCID mice were housed in microisolator cages, and all food, water and bedding were autoclaved prior to use.
Transplantation and growth of human tumours in SCID mice: Each mouse was injected subcutaneously (s.c.) into the right flank with 3×10^6 cells resuspended in 0.2 ml RPMI 1640 supplemented with 10% FCS. After transplantation, the size of each tumour was measured using callipers. The tumour weight was estimated according to Geran et al. (1972) using the formula:
Tumour weight (mg)=length (mm)×width^2 (min)/2.
Mice treatment: Omeprazole (Astra-Zeneca, Italy) and pantoprazole (Sigma Tau) were administered at a dose of 75 mg/kg by gavage as previously described (Watson and Smith, 2001), as a suspension in PBS1X. Lansoprazole (Pharmacia, Sweden) and rabeprazole (Janssen) were administered at a dose of 25 mg/kg by gavage as previously described (Watson and Smith, 2001), as a suspension in PBS1X.
Cisplatin (Aventis, France) was administered intraperitoneally (i.p.) at a dose of 5 mg/kg (Son and Huang 1994).
Other: unless otherwise specified, other parameters are as set out in Examples 1 and 2, above.

[2] = system: human melanoma cells resistant to cisplatin; test: Effects of omeprazole on cisplatin resistance in vitro (cisplatin dose response curve); type: cell-based; settings: without cisplatin
Procedure: Cytotoxicity assay: Cytotoxicity was evaluated using the Trypan blue exclusion method after treatment with each chemotherapeutic drug. Briefly, after treatment, cells growing in suspension were collected, centrifuged and resuspended in PBS1X. Alternatively, cells growing in adherence were collected, pooling both adherent (live) after trypsinisation and in suspension (assumed dead) cells. Cells were thus centrifuged (10 minutes at 1500 rpm) and resuspended in PBS1X. An aliquot of the cell suspension was diluted 1:1 (v/v) with 0.4% trypan blue. After 5 minutes, cells were loaded on a haemocytometer (Neubauer) and both live (not stained) and dead (blue stained) cells were counted under a light microscope. Cell viability was assessed calculating the percentage of dead cells using the formula:
% dead cells=(no. dead cells/no. dead cells+no. live cells)×100.
Drugs: The PPIs were as in Example 1, above. Cisplatin (Aventis, France) was resuspended in PBS1X at a stock concentration of 1 mg/ml, and stored at −20° C. Both stock solutions were thawed immediately before use and not frozen again. 5-Fluorouracil (Teva Pharma, Holland) was supplied in the form of a solution at a concentration of 50 mg/ml, and was stored at r.t. as indicated by the supplier. […]

[3] = system: human melanoma cells; test: Cytotoxic effect of omeprazole in vitro, dose response curve (Trypan blue exclusion; Live/Dead assay); type: cell-based; settings: 0.01-10 μg/ml
Procedure: Tumour cells: Human tumour cells (24 melanoma cell lines, 2 colon adenocarcinoma cell lines and 2 breast cancer cell lines) obtained from a primary tumour were cultured in buffered (with bicarbonate) or not buffered (without bicarbonate) RPMI 1640 medium enriched with 10% foetal bovine serum and antibiotics in a humidified 5% C02 and 95% air atmosphere.
Dose response curves: Tumour cells, growing in suspension, were plated at 1.5×10^5/ml, in 24 wells cell culture plate (Costar). Tumour cells growing in adherence were plated at 3×10^4 cells/well in 24 wells cell culture plate. Each dilution was tested at least in triplicate in each experiment.
Cytotoxicity assay: Cytotoxicity was evaluated using the Trypan blue exclusion method after treatment with each chemotherapeutic drug. Briefly, after treatment, cells growing in suspension were collected, centrifuged and resuspended in PBS1X. Alternatively, cells growing in adherence were collected, pooling both adherent (live) after trypsinisation and in suspension (assumed dead) cells. […] After 5 minutes, cells were loaded on a haemocytometer (Neubauer) and both live (not stained) and dead (blue stained) cells were counted under a light microscope. Cell viability was assessed calculating the percentage of dead cells using the formula: […]
Live/Dead Viability/Cytotoxicity Assay®. This assay (Molecular Probes, OR, USA) provides a two colour fluorescence cell viability assay that is based on the simultaneous determination of live and dead cells with two probes (Calcein AM and Ethidium homodimer 1) that measure two recognised parameters of cell viability—intracellular esterase activity and plasma membrane integrity. Live cells were distinguished by the presence of ubiquitous intracellular esterase activity, determined by the enzymatic conversion of the virtually non-fluorescent cell permeant Calcein AM to the intensely fluorescent calcein (ex/em 495 nm/515 nm), which is retained in the cell. […] The samples were analysed with a FACScan cytometer (Becton Dickinson) equipped with a 488 argon laser. […]

SMILES	tumour growth [1]	cytotoxic effect of omeprazole alone [2]	cytotoxic effect (% dead cells) ([3]; buffered neutral medium pH 7.2)	cytotoxic effect (% dead cells) ([3]; not buffered, slightly acidic medium)
N.N.[Cl][Pt][Cl] [cisplatin]	did not show a significant effect on tumour growth; also recorded: almost ineffective if administered alone	–	–	–
COc1ccc2[nH]c([S+]([O-])Cc3ncc(C)c(OC)c3C)nc2c1 (stereo not shown) [omeprazole]	–	did not exhibit any cytotoxic effect	no apparent cytotoxic effect	cytotoxic in a dose-dependent manner only for tumour cells grown in slightly acidic medium; also recorded: markedly exerted a cytotoxic effect on tumour cells, in a dose-dependent manner
